Data from ChEMBL document CHEMBL1149564, “Synthesis and bioevaluation of N-(arylalkyl)-homospermidine conjugates” (Bioorg Med Chem Lett, 2007).
pIC50: −log10 of the molar value.

Tests used:
L1210 [1] = assay: Cytotoxicity against mouse L1210 cells by MTT assay; assay type: functional, cell-based
L1210 [2] = assay: Ratio of IC50 for mouse L1210 cells to IC50 for mouse L1210 cells in presence of […]; assay type: functional
B16 [3] = assay: Cell cycle arrest in B16 cells by accumulation at G1 phase at 0.1 uM after 24 hrs; assay type: functional, Mus musculus
B16 [4] = assay: Cytotoxicity against mouse B16 cells by MTT assay; assay type: functional, cell-based
B16 [5] = assay: Ratio of IC50 for mouse B16 cells in presence of SPD to IC50 for mouse B16 cells; assay type: functional
HeLa = assay: Cytotoxicity against human HeLa cells by MTT assay; assay type: functional, cell-based
B16 [6] = assay: Cell cycle arrest in B16 cells by accumulation at G2 phase at 0.1 uM after 24 hrs; assay type: functional, Mus musculus
B16 [7] = assay: Cell cycle arrest in B16 cells by accumulation at S phase at 0.1 uM after 24 hrs; assay type: functional, Mus musculus
B16 [8] = assay: Induction of apoptosis in B16 cells at 0.1 uM after 24 hrs; assay type: functional, Mus musculus
B16 [9] = assay: Cell cycle arrest in B16 cells by accumulation at G1 phase at 1 uM after 24 hrs; assay type: functional, Mus musculus
B16 [10] = assay: Cell cycle arrest in B16 cells by accumulation at G2 phase at 1 uM after 24 hrs; assay type: functional, Mus musculus
B16 [11] = assay: Cell cycle arrest in B16 cells by accumulation at S phase at 1 uM after 24 hrs; assay type: functional, Mus musculus
B16 [12] = assay: Induction of apoptosis in B16 cells at 1 uM after 24 hrs; assay type: functional, Mus musculus
FL5.12 [13] = assay: Induction of apoptosis in BALB/c mouse FL5.12A pro-B cells in the presence of 0.1 ng/mL IL3; assay type: functional
FL5.12 [14] = assay: Induction of apoptosis in BALB/c mouse FL5.12A pro-B cells; assay type: functional
FL5.12 [15] = assay: Induction of apoptosis in BALB/c mouse FL5.12A pro-B cells in the presence of 2 ng/mL IL3; assay type: functional

Compound	pIC50 (L1210 [1])	Ratio IC50 (L1210 [2])	pIC50 (B16 [4])	Ratio IC50 (B16 [5])	pIC50 (HeLa)	also measured
Cl.NCCCCNCCCCNCc1ccc(-c2ccccc2)cc1	5.00	2.05	5.91	2.4	5.44	Activity (B16 [3]): 49.18%; Activity (B16 [6]): 10.45%; Activity (B16 [7]): 40.37%; Activity (B16 [8]): 17.35%; Activity (B16 [9]): 39.13%; Activity (B16 [10]): 0.04%; Activity (B16 [11]): 68.83%; Activity (B16 [12]): 42.47%
Cl.c1ccc2c(CNCCCCNCCCCN3CCNCC3)c3ccccc3cc2c1	< 4.30	>2.5	5.22	2	5.02	–
CCCCNCc1ccc2cc(OC)ccc2c1	–	–	4.82	–	4.90	–
Cl.NCCCCNCCCCNCc1ccc2ccccc2c1	4.77	2.08	5.78	3.8	5.72	–
Cl.c1ccc(-c2ccc(CNCCCCNCCCCN3CCNCC3)cc2)cc1	4.69	2.71	< 4.30	–	4.57	–
Cl.c1ccc2cc(CNCCCCNCCCCN3CCNCC3)ccc2c1	4.45	1.53	5.54	9	5.43	–
Cl.c1ccc2c(CNCCCCNCCCCN3CCNCC3)cccc2c1	< 4.30	>1	5.26	2.3	5.44	–
Cl.NCCCCNCCCCNCc1c2ccccc2cc2ccccc12	5.32	1.33	6.51	6.6	5.96	Activity (B16 [3]): 77.99%; Activity (B16 [6]): 10.72%; Activity (B16 [7]): 11.29%; Activity (B16 [8]): 12.49%; Activity (B16 [9]): 80.19%; Activity (B16 [10]): 10.1%; Activity (B16 [11]): 10.1%; Activity (B16 [12]): 37.26%
Cl.NCCCCNCCCCNCC1CCCc2ccccc21 (stereo not given)	4.83	1.63	5.16	1.7	–	–
COc1ccc2cc(CNCCCCNCCCCN3CCNCC3)ccc2c1.Cl	4.82	1.76	< 4.30	–	4.95	–
COc1ccc2cc(CNCCCCNCCCCN)ccc2c1.Cl	4.82	2.69	5.31	3.6	5.92	–
N=C(N)NN [PIMAGEDINE]	–	–	–	–	–	Activity (FL5.12 [13]): 3%; Activity (FL5.12 [14]): 80%; Activity (FL5.12 [15]): 5%
CCCCNCc1ccc(-c2ccccc2)cc1	–	–	4.96	–	4.96	–
Cl.NCCCCNCCCCNCc1cccc2ccccc12	5.09	1.58	5.63	2.5	5.86	–
